The values that follow come from patent US7199216B1, “Peptide constructs for treating autoimmune and related diseases” (Cel-Sci Corporation, priority 1999, dated 2007).

Assay [1] can be described thus: Immunogenicity of TCBL peptides judged by development of antibodies that react to the peptides. The assay is classed as in vivo. The conditions noted are these: judged by the lack of developing antibodies that react to these peptides. An excerpt: (§1) The antigenic portion My-1 of these constructs is immunogenic in several strains of mice and in rabbits.
Assay [2] deals with several strains of mice. Put plainly: Immunogenicity in mice. It is filed as in vivo.
Source text: as §1

Assay [3] concerns rabbits. Put plainly: Immunogenicity in rabbits. It is filed as in vivo.
Source text: as §1

The test system of assay [4] is A/J strain of mice. The conditions noted are these: injected in the presence of adjuvant; cited from earlier work.

No end group written: not given here.

Consider “Asn Gly Gln Glu Glu (Xaa) Ala Gly Val Val Ser Thr Gly Leu Ile [m-G]”, for which the immunogenicity entry in assay [1] was “only poorly immunogenic”.
On the same count and under the same terms, the value for “Asp Leu Leu Lys Asn Gly Glu Arg (Xaa) Glu Lys Val Glu [m-J]” was “only poorly immunogenic”.
In the case of “DSAFDVLSFTAEEKAGVYK [myocardiogenic peptide derived from murine cardiac myosin heavy chain (amino acids 334–352)]”, the immunogenicity entry in assay [2] and in assay [3] was “immunogenic” throughout. In addition, in assay [4], the induction of myocarditis result is listed as “induce severe myocarditis”.
Regarding “NGQEEKAGVVSTGLI (peptide G) [non-modified TCBL from the beta-2 domain of HLA/MHC class II molecule]”, the immunogenicity entry in assay [1] was “only poorly immunogenic”.
